Measured values taken from US20240033264A1, “CDK INHIBITORS” (QILU REGOR THERAPEUTICS INC., priority 2020, published 2024).
pIC50: −log10 of the molar value. One block for each compound: values may come before it.

How the values were obtained:
[1] = test system: T47D breast cancer cells; experiment: Anti-proliferation assay in T47D cell (Cyquant); type: cell-based, human; settings: for pIC50: Homo sapiens, T47D, 144 h, anti-proliferation, day 6 after compound addition
Excerpt: T47D is a human breast cancer cell line commonly used in biomedical research involving the hormonal expression of cancer cells. T47D cells are distinct from other human breast cancer cells in that their progesterone receptors (PR) are not regulated by estradiol, a hormone that is abundant within the cells themselves. T47D cells have been employed in studies of the effects of progesterone on breast cancer and the corresponding transcriptional regulation caused by introduced drugs. The cells have been noted to be extremely resistant to estrogens and antiestrogens.
T47D breast cancer cells from American Type Culture Collection (ATCC, HTB-133) were plated at 3000 cells/well in 96-well plates, and were incubated in RPMI 1640 medium (Gibco, 31800105) with 10% Fetal Bovine Serum (FBS, Biowest, FB-1058) at 37° C., 5% CO2. After overnight incubation, baseline values were measured of the samples from one plate using Cyquant reagent (Invitrogen, C35011) following manufacturer's recommendations. Cells were incubated with the detection reagent for 1 hour at 37° C., and then the fluorescence was measured with excitation at 485 nm and emission at 535 nm using Spectra Max M5 (Molecular Devices, HD-4HYSG3196). Other plates were dosed with compounds at a ten-point dose concentration from 10 μM to 0.51 nM in a 3-fold dilution scheme. On day 6 after compound addition, Cyquant reagent was added and the fluorescence was measured using Spectra Max M5. The IC50 values of the test compound's anti-proliferation activity were determined from the baseline subtracted viability readout curve using Xlfit5/GraphPad Prism 5 software.

[2] = test system: Phosphorylation of Retinoblastoma Protein (pRb) Ser807/811 in T47D cell; experiment: Inhibition of phosphorylation of retinoblastoma protein (pRb) in T47D cell (ELISA); type: cell-based; settings: Homo sapiens, 24 hours incubation, read-out: Phospho T47D Ser807 IC50
Procedure: T47D breast cancer cells from American Type Culture Collection (ATCC, HTB-133) were plated at 40,000 cells/well in 96-well plates, and were incubated in RPMI 1640 medium (Gibco, 31800105) with 10% Fetal Bovine Serum (FBS, Biowest, FB-1058). Cells were then allowed to adhere overnight at 37° C., 5% CO2. The following day, compounds were titrated in a 3-fold dilution scheme, and the highest compound concentration tested was […]. After 24 hours incubation with compounds, cells were lysed in ice-cold lysis buffer containing phosphatase inhibitor cocktail and 1 mM PMSF. Cell lysates (50 μL/well) were then transferred to ELISA plates (pRb Ser807/811 ELISA kit, Cell Signaling, 13152 or pRb Ser780 ELISA kit, Cell Signaling, 13016)). Plates were incubated overnight at 4° C., with constant slow speed shaking. After incubation, plates were washed following manufacturer's recommendations, and then 100 μL reconstituted detection antibody was added to each well and incubated for 1 hour at 37° C. After incubation, plates were washed, and then 100 μL reconstituted HRP-linked secondary antibody was added to each well and incubated for 30 mins at 37° C. […] Plates were read on the Envision plate reader (PerkinElmer, 2104-0010) using the 96-well […] mode. IC50 values were calculated using 4 parameter sigmoidal dose-response model of Xlfit5/GraphPad Prism 5 software.

[3] = target: CDK4/CyclinD1 (Homo sapiens (Human), UniProt P11802); experiment: Assay for inhibition of CDK4/CyclinD1 (Caliper microfluidic kinase assay); type: biochemical; settings: summary statement
Procedure: (§1) The CDK4 enzyme assay for IC50 determination was performed as follows. Microfluidic kinase detection technology (Caliper) was used to monitor the phosphorylation of peptide substrate by CDK4/CyclinD1. The total reaction volume was 15 μL containing buffer A (100 mM HEPES (pH 7.5), 0.1% BSA, 0.01% Triton X-100, 1 mM DTT, 10 mM MgCl2, 10 μM Sodium Orthovanadate, 10 μM Beta-Glycerophosphate), 200 μM ATP, 1 nM CDK4/CyclinD1 (Thermofisher, PR8064A), 1 μM FL-34 (5-FAM-[…]), and the test compound at appropriate dilutions in DMSO. All components were added to the 384-well plate (Corning, 4514), and incubated at Room Temperature for 3 hours. The reaction was terminated by addition of 15 μL Stop Buffer (180 mM HEPES (pH 7.5), 20 mM EDTA, Coating-3 reagent (PerkinElmer, 760050)). The plate was then loaded on Caliper EZ Reader (EZ Reader II, PerkinElmer, HD-4HYSG2772), and the reaction mixtures including substrate and product were sipped into the microfluidic chip for separation and detection. The IC50 values of the test compound were determined by fitting the inhibition curves by 4 parameter sigmoidal dose-response model using the Xlfit5/GraphPad Prism 5 software.

[4] = target: CDK6/CyclinD3 (Homo sapiens (Human), UniProt Q00534); experiment: Assay for inhibition of CDK6/CyclinD3 (Caliper microfluidic kinase assay); type: biochemical; settings: summary statement
Procedure: as §1, with “The CDK6” for “The CDK4”, “by CDK6/CyclinD3.” for “by CDK4/CyclinD1.”, “volume is” for “volume was”, “Beta-Glycerophosphate), 300” for “Beta-Glycerophosphate), 200”, “ATP, 2” for “ATP, 1”, “nM CDK6/CyclinD3 (Carna, 04-107),” for “nM CDK4/CyclinD1 (Thermofisher, PR8064A),”

[5] = target: CDK2/CyclinE1 (Homo sapiens (Human), UniProt P24941); experiment: Assay for inhibition of CDK2/CyclinE1 (Caliper microfluidic kinase assay); type: biochemical; settings: summary statement
Procedure: The CDK2 enzyme assay for IC50 determination was performed as follows. Microfluidic kinase detection technology (Caliper) was used to monitor the phosphorylation of peptide substrate by CDK2/CyclinE1. The total reaction volume was 15 μL containing buffer A (100 mM HEPES (pH 7.5), 0.1% BSA, 0.01% Triton X-100, 1 mM DTT, 10 mM MgCl2, 10 μM Sodium Orthovanadate, 10 μM Beta-Glycerophosphate), 100 μM ATP, 5 nM CDK2/CyclinE1 (SignalChem, C29-18G), 5 μM FL-18 (5-FAM-QSPKKG-NH2), and the test compound at appropriate dilutions in DMSO. All components were added to the 384-well plate (Corning, 4514), and incubate at Room Temperature for 3 hours. The reaction was terminated by addition of 15 μL Stop Buffer (180 mM HEPES (pH 7.5), 20 mM EDTA, Coating-3 reagent (PerkinElmer, 760050)). The plate was loaded on Caliper EZ Reader (EZ Reader II, PerkinElmer, HD-4HYSG2772), and the reaction mixtures including substrate and product were sipped into the microfluidic chip for separation and detection. The IC50 values of the test compound were determined by fitting the inhibition curves by 4 parameter sigmoidal dose-response model using the Xlfit5/GraphPad Prism 5 software.

[6] = Brain penetration (stated in summary, no method); settings: summary statement

Sequence of CDK4/CyclinD1 (P11802 whole entry): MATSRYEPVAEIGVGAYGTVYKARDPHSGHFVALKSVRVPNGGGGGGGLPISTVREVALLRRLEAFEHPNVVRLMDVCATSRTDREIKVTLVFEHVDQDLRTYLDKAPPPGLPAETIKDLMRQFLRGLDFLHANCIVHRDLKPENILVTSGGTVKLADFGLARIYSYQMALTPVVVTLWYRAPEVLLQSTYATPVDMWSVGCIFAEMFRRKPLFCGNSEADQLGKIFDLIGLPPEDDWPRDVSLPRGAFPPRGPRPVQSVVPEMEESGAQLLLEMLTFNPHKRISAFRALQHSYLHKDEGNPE
Sequence of CDK4/CyclinD1 (P24385 whole entry partner): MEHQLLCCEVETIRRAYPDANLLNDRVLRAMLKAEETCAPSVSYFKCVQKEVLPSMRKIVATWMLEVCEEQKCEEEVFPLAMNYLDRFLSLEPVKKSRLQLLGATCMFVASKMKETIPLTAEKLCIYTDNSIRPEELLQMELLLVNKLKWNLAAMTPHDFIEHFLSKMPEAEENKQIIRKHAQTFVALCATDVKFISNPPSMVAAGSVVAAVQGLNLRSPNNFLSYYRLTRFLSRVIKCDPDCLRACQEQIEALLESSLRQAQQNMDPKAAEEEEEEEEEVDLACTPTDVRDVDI
Sequence of CDK6/CyclinD3 (Q00534 whole entry): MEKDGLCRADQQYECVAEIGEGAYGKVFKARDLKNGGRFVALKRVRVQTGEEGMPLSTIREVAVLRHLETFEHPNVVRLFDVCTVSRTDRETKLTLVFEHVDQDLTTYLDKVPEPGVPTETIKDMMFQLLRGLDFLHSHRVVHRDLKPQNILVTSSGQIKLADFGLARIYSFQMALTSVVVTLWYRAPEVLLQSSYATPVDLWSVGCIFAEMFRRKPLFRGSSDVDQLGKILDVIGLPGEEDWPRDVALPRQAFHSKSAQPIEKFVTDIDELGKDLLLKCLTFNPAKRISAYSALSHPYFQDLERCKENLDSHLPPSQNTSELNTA
Sequence of CDK6/CyclinD3 (P30281 whole entry partner): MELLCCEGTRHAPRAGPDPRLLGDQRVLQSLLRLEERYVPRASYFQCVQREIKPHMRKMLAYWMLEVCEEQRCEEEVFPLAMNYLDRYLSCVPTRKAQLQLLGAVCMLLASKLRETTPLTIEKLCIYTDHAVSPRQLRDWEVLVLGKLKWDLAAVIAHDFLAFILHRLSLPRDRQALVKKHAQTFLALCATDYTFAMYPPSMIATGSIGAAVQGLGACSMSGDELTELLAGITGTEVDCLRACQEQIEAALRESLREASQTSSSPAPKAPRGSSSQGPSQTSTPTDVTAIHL

SMILES: CC(C)c1cnn2ccc(-c3ccnc(Nc4ccc(N5CC[C@H](N(C)C)CC5=O)cn4)n3)cc12 [Synthetic Example 3]
pIC50 [1]: > 7.00
pIC50 [2]: > 7.00

pIC50 [1]: > 7.00
SMILES: CC(C)c1cnn2ccc(-c3ccnc(Nc4ccc(N5CC[C@@H](N(C)C)CC5=O)cn4)n3)cc12 [Synthetic Example 2]

SMILES: CC(C)c1cnn2ccc(-c3ccnc(Nc4ccc(N5CC[C@H](N(C)C)CC5=O)cn4)n3)cc12 [Compound A]
anti-proliferation activities (in words) ([1]; summary statement): strong
inhibition of CDK4 (in words) [3]: actively inhibits
inhibition of CDK6 (in words) [4]: actively inhibits
inhibition of CDK2 (in words) [5]: actively inhibits

SMILES: CC(C)c1cnn2ccc(-c3ccnc(Nc4ccc(N5CCC(N(C)C)CC5=O)cn4)n3)cc12 (centres unmarked) [Synthetic Example 1]
pIC50 [1]: > 7.00

SMILES: CC(C)N1CCN(c2ccc(Nc3nccc(-c4cc5c(ncn5C(C)C)c(F)n4)n3)nc2)CC1 [Synthetic Example 4]
pIC50 [1]: > 7.00

SMILES: CC(C)N1CCN(c2ccc(Nc3nccc(-c4cc5c(ncn5C(C)C)c(F)n4)n3)nc2)CC1 [Compound B]
brain penetration (in words) [6]: excellent
selectivity of CDK4 inhibition (in words) [3]: selectively inhibit
